From US20060029623A1, “Invert emulsions comprising at least one active agent sensitive to water and cosmetic/dermatological applications thereof” (GALDERMA RESEARCH & DEVELOPMENT, S.N.C., priority 2003, published 2006)

Experiment: Maximum solubility of the vitamin D derivative in various excipients (excess active, stirring 12 h, filtration, HPLC assay)
Assay type: physicochemical
Procedure: In the table below are the solubility results for (4E,6E)-7-[3-(3,4-bishydroxymethylbenzyloxy)phenyl]-3-ethylnona4,6-dien-3-ol, a vitamin D analogue, in various excipients:
These maximum solubilities of (4E,6E)-7-[3-(3,4-bishydroxymethylbenzyloxy)phenyl]-3-ethylnona-4,6-dien-3-ol, a vitamin D analogue, were measured after stirring for 12 h with a magnetic stirrer bar, at room temperature, with an excess of active ingredient in the excipient to be analyzed. The suspension is then filtered (1.2 μm) and then the filtrate is assayed by HPLC.

Structure (SMILES): CC/C(=C\C=C\C(O)(CC)CC)c1cccc(OCc2ccc(CO)c(CO)c2)c1 [Compound 1, (4E,6E)-7-[3-(3,4-bishydroxymethyl-benzyloxy)phenyl]-3-ethylnona-4,6-dien-3-ol]
- Solubility, Concentration in % (w/w) (in Cetiol SN, room temperature): <0.1 % (w/w)
- Solubility, Concentration in % (w/w) (in Crodamol IPP, room temperature): 0.2 % (w/w)
- Solubility, Concentration in % (w/w) (in Ethanol Rectapur, room temperature): 23.3 % (w/w)
- Solubility, Concentration in % (w/w) (in Eutanol G, room temperature): 0.5 % (w/w)
- Solubility, Concentration in % (w/w) (in Glycerine, room temperature): <0.05 % (w/w)
- Solubility, Concentration in % (w/w) (in Marcol 172, room temperature): <0.05 % (w/w)
- Solubility, Concentration in % (w/w) (in Miglyol 812, room temperature): 0.4 % (w/w)
- Solubility, Concentration in % (w/w) (in PEG 400, room temperature): 17.8 % (w/w)
- Solubility, Concentration in % (w/w) (in Primol 352, room temperature): <0.05 % (w/w)
- Solubility, Concentration in % (w/w) (in Propylene glycol, room temperature): 6.7 % (w/w)
- Solubility, Concentration in % (w/w) (in Silicone DC 200, room temperature): <0.05 % (w/w)
- Solubility, Concentration in % (w/w) (in Tegosoft TN, room temperature): 0.3 % (w/w)
- Solubility, Concentration in % (w/w) (in Transcutol, room temperature): 27.0 % (w/w)
- Solubility, Concentration in % (w/w) (solution pH 4, room temperature): <0.05 % (w/w)
- Solubility, Concentration in % (w/w) (solution pH 7, room temperature): <0.05 % (w/w)
